{"source": "patent US7053069B2", "about": "“Pharmaceutical compositions and methods of using C-21 modified epothilone derivatives” (Bristol-Myers Squibb Company, priority 2002, dated 2006)", "key": {"[1]": {"assay": "Stability of aqueous solution, time for 5% drug loss (t95)", "format": "physicochemical", "conditions": "37° C.", "from_the_text": "Administering one or more epothilones of formula I, Ia, Ib or Ic, or a pharmaceutically acceptable salt, solvate, clathrate, hydrate, or prodrug thereof, in combination with a pharmaceutically acceptable acid neutralizing buffer provides increased bioavailability of the one or more epothilones of formula I, Ia, Ib or Ic. Without being limited by theory, it is believed that the increased bioavailability is due, at least in significant part, to the buffer decreasing the rate of decomposition of the epothilones of formula I, Ia, Ib or Ic, or a pharmaceutically acceptable salt, solvate, clathrate, hydrate, or prodrug thereof, in the acidic environment of the stomach. Certain epothilones, including the epothilone of formula Ic, are unstable in acidic aqueous environments and decompose, presumably by an acid catalyzed hydrolytic opening of the epoxide ring. For example, the time for 5% drug loss (t95) at 37° C. for an aqueous solution of Compound A (epothilone of formula Ic) is approximately 14 h at pH 7, but <0.2 hours at pH 2.5. Thus, when epothilones of formula I, Ia, Ib or Ic, or a pharmaceutically acceptable salt, solvate, clathrate, hydrate, or prodrug thereof, are orally administered they decompose in the stomach of the patient such that they are either minimally absorbed or not absorbed by the gastrointestinal tract."}, "[2]": {"assay": "Degradation of drug during solution preparation and lyophilization", "format": "physicochemical", "conditions": "dissolution at about 5° C., pH 6.0, lyophilization at −15° C. 34 hours, drying at 25° C. 24 hours", "protocol": "[1S-[1R*,3R*(E),7R*,10S*,11R*,12R*,16S*]]-3-[2-[2-(Aminomethyl)-4-thiazolyl]-1-methylethenyl]-7,11-dihydroxy-8,8,10,12,16-pentamethyl-4,17-dioxabicyclo[14.1.0]heptadecane-5,9-dione (compound of formula Ic) (8.7 g) was dissolved in 1280 mL of an aqueous solution of citric acid (10.1 grams) and dextran 40 (80 grams) which had been pre-cooled to about 5° C. Once the drug powder had become completely dissolved, the solution pH was adjusted to 6.0 and Water for Injection (178 mL) was added.\nThe solution formed above was promptly lyophilized in a Virtis Genesis(TM) lyophilizer at −15° C. with exclusion of light over a period of 34 hours. The resultant lyophile was then further dried at 25° C. under high vacuum for 24 hours. […] The lyophile was packaged under clean conditions into 15 mL vials, each containing 10 mg of drug plus a 10% excess to allow for transfer and dispensing (vial/needle/syringe, VNS) losses."}, "[3]": {"assay": "Aqueous solubility / formulation without surfactants", "format": "physicochemical", "protocol": "The epothilones of formula Ic may be formulated without the use of surfactants to a concentration of about at least 20 mg/mL with pH adjustment. If formulations containing a surfactant are desired, the lyophilized epothilone analogs represented by formula I, Ia, Ib and Ic are reconstituted with a mixture of equal parts by volume of Dehydrated Alcohol, USP and a nonionic surfactant, preferably a polyoxyethylated castor oil surfactant (available from GAF Corporation, Mount Olive, N.J., under the trademark, Cremophor EL). Alternately, an oral suspension can be prepared by pH adjustment and the use of a stabilizer, surfactant, and/or viscosity enhancing agent, and may be administered alone or with water or with a pharmaceutically acceptable acid neutralizing buffer."}, "[4]": {"assay": "Clinical toxicity in dose escalation study", "format": "in vivo", "conditions": "human patients", "protocol": "(§1) Compound A was administered to human patients once every three (3) weeks as a 15-minute infusion, using an accelerated followed by modified Fibonacci dose escalation design. Twenty-two (22) patients were treated at does levels of 0.6, 1.2, 2.5, 5, 10, 20, 30 and 40 mg/m^2."}, "[5]": {"system": "taxane-sensitive and taxane-resistant tumor models", "assay": "Anticancer activity in tumor models"}, "[6]": {"assay": "Clinical pharmacokinetics, 15-minute infusion once every three weeks", "format": "in vivo, human", "protocol": "as §1"}, "[7]": {"conditions": "human, 30 mg/m^2, cycle 1, mean, n=7"}, "[8]": {"conditions": "plasma, intravenous, 30 mg/m2, human, 30 mg/m^2, cycle 1, mean, n=7"}}, "data": [{"smiles": "C/C(=C\\c1csc(CN)n1)[C@@H]1C[C@@H]2O[C@]2(C)CCC[C@H](C)[C@H](O)[C@@H](C)C(=O)C(C)(C)[C@@H](O)CC(=O)O1", "note": "[Compound A, [1S-[1R*,3R*(E),7R*,10S*,11R*,12R*,16S*]]-3-[2-[2-(aminomethyl)-4-thiazolyl]-1-methylethenyl]-7,11-dihydroxy-8,8,10,12,16-pentamethyl-4,17-dioxabicyclo[14.1.0]heptadecane-5,9-dione]", "values": [{"measurement": "time for 5% drug loss (t95)", "setting": "[1]; pH 2.5", "value": "< 0.2", "unit": "h"}, {"measurement": "time for 5% drug loss (t95)", "setting": "[1]; pH 7", "value": "approximately 14 h"}, {"measurement": "degradation of the drug", "setting": "[2]", "value": "No detectable degradation"}, {"measurement": "aqueous solubility", "setting": "[3]", "value": "water soluble"}, {"measurement": "concentration formulated without surfactants", "setting": "[3]; with pH adjustment", "value": "at least 20 mg/mL"}, {"measurement": "related toxicities", "setting": "[4]", "value": "diarrhea, nausea, vomitting, anorexia, fatigue, anemia, alopecia, neuropathy, myalgia and neutropenia"}, {"measurement": "dose-limiting toxicity (DLT)", "setting": "[4]; 0.6 to 40 mg/m^2", "value": "No dose-limiting toxicity (DLT) was observed"}, {"measurement": "anticancer activity", "setting": "[5]", "value": "demonstrated anticancer activity"}, {"measurement": "time plasma concentrations near or above the preclinically determined effective concentration (MEC)", "setting": "[6]; four of the seven patients in the 30 mg/m2 cohort", "value": "about 8 hours"}, {"measurement": "increases in AUC and CMAX", "setting": "[6]; human patients, 0.6 to 40 mg/m^2, preliminary pharmacokinetics", "value": "dose-related"}, {"measurement": "C1t", "setting": "[6]; [7]", "value": 282, "unit": "mL/min/m^2"}, {"measurement": "Vss", "setting": "[6]; [7]", "value": 494, "unit": "L/m^2"}, {"measurement": "AUC", "setting": "[6]; [8]", "value": 2100, "unit": "ng·h/mL"}, {"measurement": "Cmax", "setting": "[6]; [8]", "value": 3430, "unit": "ng/mL"}, {"measurement": "half-life", "setting": "[6]; [8]", "value": 33, "unit": "h"}]}]}
